These results are taken from PubChem BioAssay AID248 (DTP/NCI, 2004).

Each structure is given as a SMILES string. Inconclusive results and toxic doses are left out.

For the experiment, the system named is L1210 leukemia ip in BDF1 mice, survival T/C. Nature of the experiment: NCI In Vivo Anticancer Drug Screen. Data for tumor model L1210 Leukemia (intraperitoneal) in B6D2F1 (BDF1) mice. The conditions noted are these: endpoint: mean survival time, higher = longer survival. Put shortly: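 Transplantable tumor model; survival measured in treated vs vehicle control mice. Value = treated/control.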

The mark [1] stands for this setting: dose: 25.0 mg/kg/injection, schedule: Q01DX009 (ip), vehicle: saline with Tween-80.
Setting [2] is: dose: 50.0 mg/kg/injection, schedule: Q01DX009 (ip), vehicle: saline with Tween-80.
The mark [3] stands for this setting: dose: 100.0 mg/kg/injection, schedule: Q01DX009 (ip), vehicle: saline with Tween-80.
Where [4] appears, read: dose: 100.0 mg/kg/injection, schedule: Q01DX001 (ip), vehicle: Klucel (hydroxypropylcellulose) (HPC).
Where [5] appears, read: dose: 200.0 mg/kg/injection, schedule: Q01DX001 (ip), vehicle: Klucel (hydroxypropylcellulose) (HPC).
The mark [6] stands for this setting: dose: 100.0 mg/kg/injection, schedule: Q01DX009 (ip), vehicle: Klucel (hydroxypropylcellulose) (HPC).
[7] abbreviates: dose: 200.0 mg/kg/injection, schedule: Q04DX003 (ip), vehicle: Klucel (hydroxypropylcellulose) (HPC).
[8] abbreviates: dose: 400.0 mg/kg/injection, schedule: Q01DX001 (ip), vehicle: Klucel (hydroxypropylcellulose) (HPC).
The mark [9] stands for this setting: dose: 100.0 mg/kg/injection, schedule: Q04DX003 (ip), vehicle: Klucel (hydroxypropylcellulose) (HPC).
[10] abbreviates: dose: 100.0 mg/kg/injection, schedule: Q04DX003 (ip), vehicle: saline with Tween-80.
The mark [11] stands for this setting: dose: 200.0 mg/kg/injection, schedule: Q04DX003 (ip), vehicle: saline with Tween-80.
[12] abbreviates: dose: 100.0 mg/kg/injection, schedule: Q01DX001 (ip), vehicle: saline.
The mark [13] stands for this setting: dose: 200.0 mg/kg/injection, schedule: Q01DX001 (ip), vehicle: saline.
The mark [14] stands for this setting: dose: 400.0 mg/kg/injection, schedule: Q01DX001 (ip), vehicle: saline.

In the case of `O=C(O)/C(=C\c1ccccc1Br)c1ccc(C(F)(F)F)cc1[N+](=O)[O-]`, the T/C runs as follows: (dose: 100.0 mg/kg/injection, schedule: Q01DX009 (ip), vehicle: saline sonified) 109 % of control; (dose: 200.0 mg/kg/injection, schedule: Q01DX009 (ip), vehicle: saline sonified) 98 % of control.
Turning to `Clc1nnc(-c2ccccc2)c(-c2ccccc2)n1`, the T/C reads like this: under setting [1], 95 % of control; under setting [2], 95 % of control; under setting [3], 97 % of control.
As for `COc1ccccc1N=Nc1c(O)n(-c2ccccc2C)c(=S)n(-c2ccc(C)cc2)c1=O`, the T/C under setting [4] is 101 % of control and the T/C under setting [5] was 93 % of control.
On to `CC(=O)c1cccc(NC(=O)Oc2ccc(F)cc2Cl)c1`, for which the T/C by setting is: under setting [6], 97 % of control; (dose: 200.0 mg/kg/injection, schedule: Q01DX009 (ip), vehicle: Klucel (hydroxypropylcellulose) (HPC)) 108 % of control.
Consider `CC(C)(C)C1=CC(=O)C=C(C(C)(C)C)C1=O`, for which the T/C under setting [4] is 89 % of control; the T/C under setting [5] was 92 % of control; the T/C under setting [7] was 87 % of control; the T/C under setting [8] is 100 % of control; the T/C (dose: 400.0 mg/kg/injection, schedule: Q04DX003 (ip), vehicle: Klucel (hydroxypropylcellulose) (HPC)) was 89 % of control.
In the case of `O=NN(CCCl)C(=O)Nc1ccc(CCCl)cc1`, the T/C is 161 % of control (dose: 10.0 mg/kg/injection, schedule: Q01DX001 (ip), vehicle: carboxymethylcellulose (CMC)); 152 % of control (dose: 20.0 mg/kg/injection, schedule: Q01DX001 (ip), vehicle: carboxymethylcellulose (CMC)); 246 % of control (dose: 33.0 mg/kg/injection, schedule: Q01DX001 (ip), vehicle: carboxymethylcellulose (CMC)); 107 % of control (dose: 33.0 mg/kg/injection, schedule: Q01DX009 (ip), vehicle: carboxymethylcellulose (CMC)); 216 % of control (dose: 50.0 mg/kg/injection, schedule: Q01DX001 (ip), vehicle: carboxymethylcellulose (CMC)); 87 % of control (dose: 50.0 mg/kg/injection, schedule: Q01DX009 (ip), vehicle: carboxymethylcellulose (CMC)).
As for `CC(C)=CC1CC(C)C2(CCC3(C)CC4C(C(=O)CC4(C)O)/C(C=O)=C\CC32)O1` (stereo not drawn), the T/C reads like this: (dose: 5.0 mg/kg/injection, schedule: Q01DX001 (ip), vehicle: saline) 103 % of control; (dose: 10.0 mg/kg/injection, schedule: Q01DX001 (ip), vehicle: saline) 97 % of control; (dose: 20.0 mg/kg/injection, schedule: Q01DX001 (ip), vehicle: saline) 97 % of control; (dose: 40.0 mg/kg/injection, schedule: Q01DX001 (ip), vehicle: saline) 97 % of control; (dose: 80.0 mg/kg/injection, schedule: Q01DX001 (ip), vehicle: saline) 109 % of control.
Turning to `O=C(Nc1ccc2cc(S(=O)(=O)O)ccc2c1)c1ccc(N=Nc2c(S(=O)(=O)O)cc3cc(S(=O)(=O)O)cc(NC(=O)c4ccccc4)c3c2O)cc1`, the T/C reads like this: (dose: 25.0 mg/kg/injection, schedule: Q01DX001 (ip), vehicle: Klucel (hydroxypropylcellulose) (HPC)) 93 % of control; (dose: 25.0 mg/kg/injection, schedule: Q01DX009 (ip), vehicle: other) 108 % of control; (dose: 25.0 mg/kg/injection, schedule: Q04DX003 (ip), vehicle: Klucel (hydroxypropylcellulose) (HPC)) 95 % of control; (dose: 50.0 mg/kg/injection, schedule: Q01DX001 (ip), vehicle: Klucel (hydroxypropylcellulose) (HPC)) 88 % of control; (dose: 50.0 mg/kg/injection, schedule: Q01DX009 (ip), vehicle: other) 102 % of control; (dose: 50.0 mg/kg/injection, schedule: Q04DX003 (ip), vehicle: Klucel (hydroxypropylcellulose) (HPC)) 98 % of control. In addition, the T/C under setting [4] was 92 % of control; the T/C (dose: 100.0 mg/kg/injection, schedule: Q01DX009 (ip), vehicle: other) was 97 % of control; the T/C under setting [9] is 101 % of control; the T/C under setting [10] was 104 % of control; the T/C (dose: 150.0 mg/kg/injection, schedule: Q01DX009 (ip), vehicle: other) was 89 % of control; the T/C under setting [11] was 91 % of control.
Take `C=CCOC(=O)C1OC12CCCCC2` (stereo not drawn): the T/C by setting is: (dose: 50.0 mg/kg/injection, schedule: Q01DX001 (ip), vehicle: saline) 104 % of control; under setting [12], 95 % of control; under setting [13], 101 % of control; under setting [14], 98 % of control.
As to `CC1=CC23C(COC(=O)C24CO4)C(C(=O)O)=CC3C1C` (stereo not drawn) (tested in a mixture with another compound), the T/C is 101 % of control (dose: 1.2 mg/kg/injection, schedule: Q01DX001 (ip), vehicle: saline) and 100 % of control (dose: 2.5 mg/kg/injection, schedule: Q01DX001 (ip), vehicle: saline).
Consider `O=C(NCCCCOc1ccc([N+](=O)[O-])cc1Cl)c1ccc(S(=O)(=O)F)cc1`, for which the T/C by setting is: under setting [3], 93 % of control; under setting [10], 92 % of control; (dose: 200.0 mg/kg/injection, schedule: Q01DX009 (ip), vehicle: saline with Tween-80) 93 % of control; under setting [11], 93 % of control; (dose: 400.0 mg/kg/injection, schedule: Q01DX009 (ip), vehicle: saline with Tween-80) 100 % of control; (dose: 400.0 mg/kg/injection, schedule: Q04DX003 (ip), vehicle: saline with Tween-80) 111 % of control.
Take `CCOC(=O)CCC(C)C(C)=O` (stereo not drawn): the T/C by setting is: (dose: 50.0 mg/kg/injection, schedule: Q04DX002 (ip), vehicle: saline with Tween-80) 108 % of control; under setting [12], 109 % of control; (dose: 100.0 mg/kg/injection, schedule: Q04DX002 (ip), vehicle: saline with Tween-80) 103 % of control; under setting [13], 98 % of control; (dose: 200.0 mg/kg/injection, schedule: Q04DX002 (ip), vehicle: saline with Tween-80) 108 % of control; under setting [14], 98 % of control.
In the case of `O=C1c2ccccc2C(=O)N1c1ccc(Br)cc1`, the T/C is, setting by setting: under setting [4], 101 % of control; under setting [5], 104 % of control; under setting [8], 104 % of control.
Turning to `C=C(C)CN=C=S`, the T/C is 100 % of control under setting [1]; 101 % of control (dose: 25.0 mg/kg/injection, schedule: Q04DX003 (ip), vehicle: saline with Tween-80); 98 % of control under setting [2]; 109 % of control (dose: 50.0 mg/kg/injection, schedule: Q04DX003 (ip), vehicle: saline with Tween-80); 104 % of control under setting [3]; 103 % of control under setting [10].
As to `COc1ccc(C(=O)O)c(CC#N)c1`, the T/C was 97 % of control under setting [9] and 87 % of control under setting [7].
With `O=C(O)CNC(=O)CCl`, the T/C (dose: 50.0 mg/kg/injection, schedule: Q01DX009 (ip), vehicle: Klucel (hydroxypropylcellulose) (HPC)) was 87 % of control; the T/C under setting [6] is 90 % of control; the T/C under setting [9] was 94 % of control; the T/C under setting [7] was 89 % of control.
For the compound `CC(C)OC(=O)c1cccc2c1-c1ccccc1C2=O`, the T/C is 92 % of control under setting [12], 92 % of control under setting [13] and 95 % of control under setting [14].
